Test: Solid form stability on storage, analyzed using PXRD
Type: physicochemical
Procedure: The crystalline Form S2 of Siponimod prepared by the process of the present application is kept at about 25° C. After three months the solid was analyzed using PXRD. […] The crystalline Form S2 of Siponimod prepared by the process of the present application is kept at about 70° C. After three months the solid was analyzed using PXRD.
In another aspect, the present application provides stable amorphous Siponimod. […] The amorphous Siponimod prepared by the process of the present application is kept in a […] at about 5° C. After one year the solid was analyzed using PXRD.
The amorphous form of siponimod prepared in example-3 was kept in an amber colored glass bottle at 2-8° C. for one year and the solid was analyzed using PXRD.

With `CCc1cc(/C(C)=N/OCc2ccc(C3CCCCC3)c(C(F)(F)F)c2)ccc1CN1CC(C(=O)O)C1` [amorphous Siponimod] as the molecule, how does the “stability of the amorphous form (time stable)” value (amorphous form, storage, PXRD) read?
The value was “stable for at least one year”.

What about the “solid form after storage (PXRD)” value (kept in a freezer at about 5° C., after one year, PXRD shown in FIG. 7) of the same molecule?
The value was “remains in amorphous form”.

Which “stability of the crystalline form (time stable)” value (crystalline Form S2, storage, PXRD) does the source give for `CCc1cc(/C(C)=N/OCc2ccc(C3CCCCC3)c(C(F)(F)F)c2)ccc1CN1CC(C(=O)O)C1` [crystalline Form S2 of Siponimod] here?
Its value is “stable for at least three months”.

What about the “solid form after storage (PXRD)” value (kept at about 25° C., after three months, PXRD matches FIG. 3) of the same molecule?
Its value is “remains in crystalline Form S2”.

And the “solid form after storage (PXRD)” value (kept at about 70° C., after three months, PXRD matches FIG. 3)?
The value was “remains in crystalline Form S2”.
